Experimental data published in the NIST ThermoML archive (doi:10.1016/j.jct.2004.08.003).

How the values were obtained:
[1] = relative permittivity at various frequencies (dimensionless); xn = mol fraction of the nth substance listed; details: 101.3 kPa, Liquid, HP4284A LCR Meter with HP16452A measuring cell
[2] = xn = mol fraction of the nth substance listed; details: 101.3 kPa, Liquid

COCCOCCOCCOC [2,5,8,11-tetraoxadodecane] + CCCCCCCCC
Details | mass density [kg/m3] | relative permittivity
[1], 288.15 K, x1 = 0.0979 | – | 2.32
[1], 288.15 K, x1 = 0.1997 | – | 2.72
[1], 288.15 K, x1 = 0.2461 | – | 2.91
[1], 288.15 K, x1 = 0.2965 | – | 3.15
[1], 288.15 K, x1 = 0.3969 | – | 3.65
[1], 288.15 K, x1 = 0.5043 | – | 4.24
[1], 288.15 K, x1 = 0.6013 | – | 4.83
[1], 288.15 K, x1 = 0.6972 | – | 5.48
[1], 288.15 K, x1 = 0.7975 | – | 6.22
[1], 288.15 K, x1 = 0.8996 | – | 7.02
[1], 288.15 K, x1 = 0.9503 | – | 7.44
[1], 293.15 K, x1 = 0.0979 | – | 2.3
[1], 293.15 K, x1 = 0.1999 | – | 2.7
[1], 293.15 K, x1 = 0.2483 | – | 2.9
[1], 293.15 K, x1 = 0.2962 | – | 3.12
[1], 293.15 K, x1 = 0.3968 | – | 3.61
[1], 293.15 K, x1 = 0.5047 | – | 4.2
[1], 293.15 K, x1 = 0.6015 | – | 4.78
[1], 293.15 K, x1 = 0.6957 | – | 5.4
[1], 293.15 K, x1 = 0.7975 | – | 6.11
[1], 293.15 K, x1 = 0.8996 | – | 6.9
[1], 293.15 K, x1 = 0.951 | – | 7.31
[1], 298.15 K, x1 = 0.0975 | – | 2.3
[1], 298.15 K, x1 = 0.2091 | – | 2.72
[1], 298.15 K, x1 = 0.2569 | – | 2.92
[1], 298.15 K, x1 = 0.2955 | – | 3.08
[1], 298.15 K, x1 = 0.4035 | – | 3.61
[1], 298.15 K, x1 = 0.5005 | – | 4.13
[1], 298.15 K, x1 = 0.5944 | – | 4.67
[1], 298.15 K, x1 = 0.6956 | – | 5.32
[1], 298.15 K, x1 = 0.8007 | – | 6.04
[1], 298.15 K, x1 = 0.901 | – | 6.79
[1], 298.15 K, x1 = 0.9489 | – | 7.17
[1], 303.15 K, x1 = 0.099 | – | 2.28
[1], 303.15 K, x1 = 0.2015 | – | 2.66
[1], 303.15 K, x1 = 0.2491 | – | 2.86
[1], 303.15 K, x1 = 0.297 | – | 3.06
[1], 303.15 K, x1 = 0.4001 | – | 3.56
[1], 303.15 K, x1 = 0.4967 | – | 4.06
[1], 303.15 K, x1 = 0.596 | – | 4.63
[1], 303.15 K, x1 = 0.6976 | – | 5.27
[1], 303.15 K, x1 = 0.7976 | – | 5.93
[1], 303.15 K, x1 = 0.9012 | – | 6.69
[1], 303.15 K, x1 = 0.9496 | – | 7.06
[1], 308.15 K, x1 = 0.0979 | – | 2.26
[1], 308.15 K, x1 = 0.1997 | – | 2.63
[1], 308.15 K, x1 = 0.2461 | – | 2.81
[1], 308.15 K, x1 = 0.2965 | – | 3.03
[1], 308.15 K, x1 = 0.3969 | – | 3.49
[1], 308.15 K, x1 = 0.5043 | – | 4.05
[1], 308.15 K, x1 = 0.6013 | – | 4.6
[1], 308.15 K, x1 = 0.6972 | – | 5.19
[1], 308.15 K, x1 = 0.7975 | – | 5.85
[1], 308.15 K, x1 = 0.8996 | – | 6.58
[1], 308.15 K, x1 = 0.9503 | – | 6.96
[1], 318.15 K, x1 = 0.0987 | – | 2.24
[1], 318.15 K, x1 = 0.2016 | – | 2.6
[1], 318.15 K, x1 = 0.248 | – | 2.78
[1], 318.15 K, x1 = 0.2973 | – | 2.97
[1], 318.15 K, x1 = 0.4 | – | 3.43
[1], 318.15 K, x1 = 0.502 | – | 3.94
[1], 318.15 K, x1 = 0.6006 | – | 4.48
[1], 318.15 K, x1 = 0.6982 | – | 5.07
[1], 318.15 K, x1 = 0.8053 | – | 5.75
[1], 318.15 K, x1 = 0.9018 | – | 6.42
[1], 318.15 K, x1 = 0.9503 | – | 6.75
[1], 328.15 K, x1 = 0.1007 | – | 2.23
[1], 328.15 K, x1 = 0.2003 | – | 2.57
[1], 328.15 K, x1 = 0.2486 | – | 2.75
[1], 328.15 K, x1 = 0.2973 | – | 2.95
[1], 328.15 K, x1 = 0.3958 | – | 3.38
[1], 328.15 K, x1 = 0.496 | – | 3.86
[1], 328.15 K, x1 = 0.5967 | – | 4.38
[1], 328.15 K, x1 = 0.6922 | – | 4.92
[1], 328.15 K, x1 = 0.798 | – | 5.55
[1], 328.15 K, x1 = 0.8997 | – | 6.21
[1], 328.15 K, x1 = 0.9487 | – | 6.53
[2], 288.15 K, x1 = 0.0981 | 746.25 | –
[2], 288.15 K, x1 = 0.1985 | 771.84 | –
[2], 288.15 K, x1 = 0.2459 | 784.06 | –
[2], 288.15 K, x1 = 0.2944 | 796.71 | –
[2], 288.15 K, x1 = 0.3937 | 822.83 | –
[2], 288.15 K, x1 = 0.4957 | 850.01 | –
[2], 288.15 K, x1 = 0.5957 | 876.93 | –
[2], 288.15 K, x1 = 0.6952 | 904 | –
[2], 288.15 K, x1 = 0.7937 | 931.06 | –
[2], 288.15 K, x1 = 0.9005 | 960.86 | –
[2], 288.15 K, x1 = 0.9494 | 974.71 | –
[2], 293.15 K, x1 = 0.1006 | 742.71 | –
[2], 293.15 K, x1 = 0.1961 | 766.97 | –
[2], 293.15 K, x1 = 0.2461 | 779.84 | –
[2], 293.15 K, x1 = 0.2982 | 793.34 | –
[2], 293.15 K, x1 = 0.3979 | 819.48 | –
[2], 293.15 K, x1 = 0.4995 | 846.49 | –
[2], 293.15 K, x1 = 0.5939 | 871.77 | –
[2], 293.15 K, x1 = 0.6986 | 900.11 | –
[2], 293.15 K, x1 = 0.7979 | 927.37 | –
[2], 293.15 K, x1 = 0.9022 | 956.37 | –
[2], 293.15 K, x1 = 0.95 | 969.87 | –
[2], 298.15 K, x1 = 0.1006 | 738.55 | –
[2], 298.15 K, x1 = 0.1961 | 762.73 | –
[2], 298.15 K, x1 = 0.2461 | 775.58 | –
[2], 298.15 K, x1 = 0.2982 | 789.07 | –
[2], 298.15 K, x1 = 0.3979 | 815.17 | –
[2], 298.15 K, x1 = 0.4995 | 842.12 | –
[2], 298.15 K, x1 = 0.5939 | 867.4 | –
[2], 298.15 K, x1 = 0.6986 | 895.69 | –
[2], 298.15 K, x1 = 0.7979 | 922.84 | –
[2], 298.15 K, x1 = 0.9022 | 951.81 | –
[2], 298.15 K, x1 = 0.95 | 965.31 | –
[2], 303.15 K, x1 = 0.0982 | 733.94 | –
[2], 303.15 K, x1 = 0.2002 | 759.61 | –
[2], 303.15 K, x1 = 0.2485 | 771.99 | –
[2], 303.15 K, x1 = 0.2996 | 785.17 | –
[2], 303.15 K, x1 = 0.3994 | 811.21 | –
[2], 303.15 K, x1 = 0.495 | 836.5 | –
[2], 303.15 K, x1 = 0.5989 | 864.2 | –
[2], 303.15 K, x1 = 0.6998 | 891.41 | –
[2], 303.15 K, x1 = 0.8005 | 918.9 | –
[2], 303.15 K, x1 = 0.8999 | 946.47 | –
[2], 303.15 K, x1 = 0.9499 | 960.53 | –
[2], 308.15 K, x1 = 0.0977 | 729.91 | –
[2], 308.15 K, x1 = 0.1975 | 754.98 | –
[2], 308.15 K, x1 = 0.2469 | 767.58 | –
[2], 308.15 K, x1 = 0.2964 | 780.35 | –
[2], 308.15 K, x1 = 0.3944 | 805.91 | –
[2], 308.15 K, x1 = 0.4956 | 832.62 | –
[2], 308.15 K, x1 = 0.5976 | 859.8 | –
[2], 308.15 K, x1 = 0.6967 | 886.45 | –
[2], 308.15 K, x1 = 0.7937 | 912.91 | –
[2], 308.15 K, x1 = 0.9021 | 942.91 | –
[2], 308.15 K, x1 = 0.9497 | 956.38 | –
[2], 318.15 K, x1 = 0.0998 | 722.15 | –
[2], 318.15 K, x1 = 0.1975 | 746.41 | –
[2], 318.15 K, x1 = 0.2484 | 759.29 | –
[2], 318.15 K, x1 = 0.3021 | 773.02 | –
[2], 318.15 K, x1 = 0.3883 | 795.32 | –
[2], 318.15 K, x1 = 0.4998 | 824.5 | –
[2], 318.15 K, x1 = 0.5991 | 850.79 | –
[2], 318.15 K, x1 = 0.6998 | 877.63 | –
[2], 318.15 K, x1 = 0.799 | 904.47 | –
[2], 318.15 K, x1 = 0.9009 | 932.54 | –
[2], 318.15 K, x1 = 0.9498 | 946.28 | –
[2], 328.15 K, x1 = 0.0998 | 713.9 | –
[2], 328.15 K, x1 = 0.1975 | 737.96 | –
[2], 328.15 K, x1 = 0.2484 | 750.75 | –
[2], 328.15 K, x1 = 0.3021 | 764.37 | –
[2], 328.15 K, x1 = 0.3883 | 786.52 | –
[2], 328.15 K, x1 = 0.4998 | 815.5 | –
[2], 328.15 K, x1 = 0.5991 | 841.63 | –
[2], 328.15 K, x1 = 0.6998 | 868.32 | –
[2], 328.15 K, x1 = 0.799 | 894.99 | –
[2], 328.15 K, x1 = 0.9009 | 922.95 | –
[2], 328.15 K, x1 = 0.95 | 936.74 | –
